Measured values: US9657014B2, “Substituted 1,6-naphthyridines” (Hoffmann-La Roche Inc., priority 2012, dated 2017)

System: human embryonic stem cell derived neural stem cells (NSCs)
Assay: Neural stem cell proliferation assay (neurogenesis assay)
Assay type: cell-based
Details: Homo sapiens, Neural stem cell, 96 h; Table 1, novel compounds; concentration at which 150% activity of control (100%) is reached; ATP levels (CellTiterGlo) after 4 days incubation
Protocol: Neural Stem Cell Proliferation Assay
Neurogenic properties of small molecules are determined based on the proliferation of human embryonic stem cell derived neural stem cells (NSCs) which were derived via a dual smad inhibition as previously described (Chambers, S. M., et al., Highly efficient neural conversion of human ES and iPS cells by dual inhibition of SMAD signaling, Nature biotechnology, 2009. 27 (3): p. 275-80.)
Compounds respond is measured by the increase in cells based on ATP levels (Promega:CellTiterGlo®) after an incubation period of 4 days.
NSCs are thawed and expanded over 3 passages. On the 14th day, NSCs are seeded in Polyornithin/Laminin coated 384 well plates at a cell density of 21,000 cells/cm^2 in a media volume of 38 μl.
4 hours after cell seeding, compound solutions are added at a volume of 2 μl. Stock solutions of the compounds (water, 5% DMSO) are diluted to obtain a dose response (11 points, dilution factor is 2), ranging from 8 μM to 8 nM. Controls are run to consistently determine the neurogenic properties of the cells:
Negative (neutral) control is cell culture Media (final DMSO concentration: 0.25%).
Positive controls are: • 1. cell culture Media+100 ng/ml FGF2 (final DMSO concentration: 0.1%) • 2. cell culture Media+20 ng/ml EGF (final DMSO concentration: 0.1%) • 3. cell culture Media+100 ng/ml Wnt3a (final DMSO concentration: 0.1%)
After 4 days incubation at 37° C., 5% CO2, the amount of ATP per well is quantified. The ATP concentration is proportional to the cell number. ATP is quantified by using the Promega CellTiterGlo® kit. The CellTiterGlo® reagents contain a cell lysis buffer, a thermo stable luciferase (UltraGlo™ recombinant luciferase), magnesium and luciferin. Luciferin reacts with ATP producing oxyluciferin, AMP and light. The luminescence signal is proportional to the ATP content.
The value of negative (neutral) control is determined for each assay plate by taking the average of 16 negative control wells. The neurogenic compound response is calculated for each compound as (compound/Negative Control)*100.
The values of EC150 from the dose response curve are determined for each test compound. The EC150 is the compound concentration at which 150% activity of control (100%) is reached.

SMILES | EC (150% of control) [µM]
COc1ccccc1-c1cncc2ccc(C(=O)NCCCn3ccnc3)nc12 [Example 39, N-(3-(1H-Imidazol-1-yl)propyl)-8-(2-methoxyphenyl)-1,6-naphthyridine-2-carboxamide] | 0.74
O=C(NCCCn1ccnc1)c1ccc2cncc(-c3ccccc3Cl)c2n1 [Example 40, N-(3-(1H-Imidazol-1-yl)propyl)-8-(2-chlorophenyl)-1,6-naphthyridine-2-carboxamide] | 0.69
O=C(NCCCn1ccnc1)c1ccc2cncc(-c3ccncc3)c2n1 [Example 41, N-(3-(1H-Imidazol-1-yl)propyl)-8-(pyridin-4-yl)-1,6-naphthyridine-2-carboxamide] | 1.7
COc1ccc(-c2cncc3ccc(C(=O)NCCCn4nc(C)cc4C)nc23)cc1 [Example 42, N-(3-(3,5-Dimethyl-1H-pyrazol-1-yl)propyl)-8-(4-methoxyphenyl)-1,6-naphthyridine-2-carboxamide] | 0.25
O=C(NCCCn1ccnc1)c1ccc2cncc(C3=CCOCC3)c2n1 [Example 43, N-(3-(1H-Imidazol-1-yl)propyl)-8-(3,6-dihydro-2H-pyran-4-yl)-1,6-naphthyridine-2-carboxamide] | 2.68
NC(=O)c1ccc2cncc(-c3ccc(Cl)cc3)c2n1 [Example 44, 8-(4-Chlorophenyl)-1,6-naphthyridine-2-carboxamide] | 0.03
O=C(NCc1cccnc1)c1ccc2cncc(-c3ccc(Cl)cc3)c2n1 [Example 45, 8-(4-Chlorophenyl)-N-(pyridin-3-ylmethyl)-1,6-naphthyridine-2-carboxamide] | 0.02
O=C(NCc1ccccn1)c1ccc2cncc(-c3ccc(Cl)cc3)c2n1 [Example 46, 8-(4-Chlorophenyl)-N-(pyridin-2-ylmethyl)-1,6-naphthyridine-2-carboxamide] | 0.51
COc1ccccc1CNC(=O)c1ccc2cncc(-c3ccc(Cl)cc3)c2n1 [Example 47, 8-(4-Chlorophenyl)-N-(2-methoxybenzyl)-1,6-naphthyridine-2-carboxamide] | 0.13
Cc1cnc(CNC(=O)c2ccc3cncc(-c4ccc(Cl)cc4)c3n2)cn1 [Example 48, 8-(4-Chlorophenyl)-N-((5-methylpyrazin-2-yl)methyl)-1,6-naphthyridine-2-carboxamide] | 0.88
CS(=O)(=O)NNC(=O)c1ccc2cncc(-c3ccc(Cl)cc3)c2n1 [Example 49, N′-(8-(4-Chlorophenyl)-1,6-naphthyridine-2-carbonyl)methanesulfonohydrazide] | 0.07
CS(=O)(=O)c1ccc(CNC(=O)c2ccc3cncc(-c4ccc(Cl)cc4)c3n2)cc1 [Example 50, 8-(4-Chlorophenyl)-N-(4-(methylsulfonyl)benzyl)-1,6-naphthyridine-2-carboxamide] | 0.32
CS(=O)(=O)c1cccc(CNC(=O)c2ccc3cncc(-c4ccc(Cl)cc4)c3n2)c1 [Example 51, 8-(4-Chlorophenyl)-N-(3-(methylsulfonyl)benzyl)-1,6-naphthyridine-2-carboxamide] | 0.12
O=C(Nc1ccccc1)c1ccc2cncc(-c3ccc(Cl)cc3)c2n1 [Example 53, 8-(4-Chlorophenyl)-N-phenyl-1,6-naphthyridine-2-carboxamide] | 0.23
O=C(Nc1cccnc1)c1ccc2cncc(-c3ccc(Cl)cc3)c2n1 [Example 54, 8-(4-Chlorophenyl)-N-(pyridin-3-yl)-1,6-naphthyridine-2-carboxamide] | 0.8
Cn1cc(NC(=O)c2ccc3cncc(-c4ccc(Cl)cc4)c3n2)cn1 [Example 55, 8-(4-Chlorophenyl)-N-(1-methyl-1H-pyrazol-4-yl)-1,6-naphthyridine-2-carboxamide] | 0.25
O=C(c1ccc2cncc(-c3ccc(Cl)cc3)c2n1)N1CCCCC1 [Example 56, (8-(4-Chlorophenyl)-1,6-naphthyridin-2-yl)(piperidin-1-yl)methanone] | 1.51
